# Assay results from US10093683B2, “Factor XIa inhibitors” (Merck Sharp & Dohme Corp., priority 2014, dated 2018).
# Structures can show the parent of a compound that is named as a salt. Where two headings read alike, the source gives them in different places.
# Target: human Factor XIa (Homo sapiens (Human), UniProt P03951)
# Assay: Factor XIa Assay
# Format: biochemical
# Details: read-out: FXIa Ki
# Outline: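 Purified human FXIa (40 pM final) hydrolysing fluorogenic Z-Gly-Pro-Arg-AFC (100 μM) in 50 mM HEPES pH 7.4, 150 mM NaCl, 5 mM CaCl2, 0.1% PEG 8000, at room temperature or 37° C. Initial velocities measured after enzyme–inhibitor equilibration; Ki from Vo/Vi versus [I], assuming competitive inhibition.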
# [1] = purified human Factor XIa 40 pM, Z-Gly-Pro-Arg-AFC 100 μM, pH 7.4
# human Factor XIa, sequence (P03951 388-625): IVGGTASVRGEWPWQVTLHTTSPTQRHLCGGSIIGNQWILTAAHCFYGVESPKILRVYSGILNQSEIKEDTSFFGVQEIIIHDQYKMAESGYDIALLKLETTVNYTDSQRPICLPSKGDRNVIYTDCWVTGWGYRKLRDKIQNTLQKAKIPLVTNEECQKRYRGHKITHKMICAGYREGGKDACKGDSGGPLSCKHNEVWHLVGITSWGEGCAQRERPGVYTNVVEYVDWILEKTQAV
# human Factor XIa, sequence (P03951 19-387 partner): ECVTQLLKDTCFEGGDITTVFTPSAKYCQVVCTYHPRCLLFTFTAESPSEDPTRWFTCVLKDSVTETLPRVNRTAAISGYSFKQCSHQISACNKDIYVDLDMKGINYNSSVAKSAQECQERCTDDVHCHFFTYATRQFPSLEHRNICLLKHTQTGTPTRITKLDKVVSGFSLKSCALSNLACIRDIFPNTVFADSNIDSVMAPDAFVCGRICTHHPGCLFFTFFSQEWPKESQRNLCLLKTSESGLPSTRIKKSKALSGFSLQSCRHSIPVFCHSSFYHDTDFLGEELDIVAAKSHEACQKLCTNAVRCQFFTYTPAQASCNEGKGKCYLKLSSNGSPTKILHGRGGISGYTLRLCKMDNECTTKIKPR
Ki [1] [µM],Ki [µM],SMILES
0.362,–,"COC(=O)Nc1ccc(C(=O)N[C@H](CC(=O)N2CCC3(C2)OC(=O)Nc2ccc(Cl)cc23)Cc2ccccc2)cc1 (stereo partly drawn) [Example 49, methyl (4-(((2S)-4-(6-chloro-2-oxo-1,2-dihydrospiro[benzo[d][1,3]oxazine-4,3′-pyrrolidin]-1′-yl)-4-oxo-1-phenylbutan-2-yl)carbamoyl)phenyl)carbamate]"
–,0.0632,"CS(=O)(=O)Nc1ccc(C(=O)N[C@@H](Cc2ccccc2)C(=O)N2CCC3(C2)OC(=O)Nc2ccc(Cl)cc23)cc1 (stereo partly drawn) [Example 163, N-((2S)-1-(6-chloro-2-oxo-1,2-dihydrospiro[benzo[d][1,3]oxazine-4,3′-pyrrolidin]-1′-yl)-1-oxo-3-phenylpropan-2-yl)-4-(methylsulfonamido)benzamide]"
0.219,–,"COC(=O)Nc1ccc(C(=O)N[C@@H](CCN2CCC2)C(=O)N2CC[C@@]3(C2)OC(=O)Nc2ccc(Cl)cc23)cc1 [Example 112, methyl (4-(((S)-4-(azetidin-1-yl)-1-((R)-6-chloro-2-oxo-1,2-dihydrospiro[benzo[d][1,3]oxazine-4,3′-pyrrolidin]-1′-yl)-1-oxobutan-2-yl)carbamoyl)phenyl)carbamate]"
–,8.75,"CC(N[C@@H](Cc1ccccc1)C(=O)N1CC[C@@]2(C1)OC(=O)Nc1ccc(Cl)cc12)c1ccc2c(N)n[nH]c2c1 (stereo partly drawn) [Example 224, (4R)-1′-((1-(3-amino-1H-indazol-6-yl)ethyl)-L-phenylalanyl)-6-chlorospiro[benzo[d][1,3]oxazine-4,3′-pyrrolidin]-2(1H)-one dihydrochloride]"
> 5,–,"COC(=O)Nc1ccc(C(=O)NC[C@@H](Cc2ccccc2)C(=O)N2CCC3(C2)OC(=O)Nc2ccc(Cl)cc23)cc1 (stereo partly drawn) [Example 41, methyl (4-(((2R)-2-benzyl-3-(6-chloro-2-oxo-1,2-dihydrospiro[benzo[d][1,3]oxazine-4,3′-pyrrolidin]-1′-yl)-3-oxopropyl)carbamoyl)phenyl)carbamate]"
–,5,O=C1Nc2ccc(Cl)cc2C2(CCN(C(=O)[C@H](Cc3ccccc3)NC(=O)c3ccc4c(c3)S(=O)(=O)NC4=O)C2)O1 (some centres unmarked) [Example 184]
–,0.212,Nc1nc(C(=O)N[C@@H](Cc2ccccc2)C(=O)N2CCC3(C2)OC(=O)Nc2ccc(Cl)cc23)cs1 (some centres unmarked) [Example 175]
–,0.405,O=C1Nc2ccc(Cl)cc2[C@@]2(CCCN(C(=O)[C@H](CC3CC3)NC(=O)c3csc(C(=O)O)n3)C2)O1 [Example 239]
–,0.0634,"COC(=O)Nc1ccc(C(=O)N[C@@H](Cc2ccccc2)C(=O)N2CCC3(C2)OC(=O)Nc2ccc(Cl)cc23)s1 (stereo partly drawn) [Example 196, Methyl (5-(((2S)-1-(6-chloro-2-oxo-1,2-dihydrospiro[benzo[d][1,3]oxazine-4,3′-pyrrolidin]-1′-yl)-1-oxo-3-phenylpropan-2-yl)carbamoyl)thiophen-2-yl)carbamate]"
0.0458,–,"COC(=O)Nc1ccc(C(=O)N[C@@H](CC(=O)NC2COC2)C(=O)N2CC[C@@]3(C2)OC(=O)Nc2ccc(Cl)cc23)cc1 [Example 93, methyl (4-(((S)-1-((R)-6-chloro-2-oxo-1,2-dihydrospiro[benzo[d][1,3]oxazine-4,3′-pyrrolidin]-1′-yl)-4-(oxetan-3-ylamino)-1,4-dioxobutan-2-yl)carbamoyl)phenyl)carbamate]"
≥ 5,–,"CNC(=O)Nc1ccc(S(=O)(=O)N[C@@H](Cc2ccccc2)C(=O)N2CCC3(C2)OC(=O)Nc2ccc(Cl)cc23)c(Cl)c1 (stereo partly drawn) [Example 281, 2-chloro-N-((2S)-1-(6-chloro-2-oxo-1,2-dihydrospiro[benzo[d][1,3]oxazine-4,3′-pyrrolidin]-1′-yl)-1-oxo-3-phenylpropan-2-yl)-4-(3-methylureido)benzenesulfonamide]"
≥ 5,–,"O=C1Nc2ccc(Cl)cc2C2(CCN(C(=O)[C@H](Cc3ccccc3)NS(=O)(=O)c3ccc4oc(O)nc4c3)C2)O1 (stereo partly drawn) [Example 285, N-((2S)-1-(6-chloro-2-oxo-1,2-dihydrospiro[benzo[d][1,3]oxazine-4,3′-pyrrolidin]-1′-yl)-1-oxo-3-phenylpropan-2-yl)-2-hydroxybenzo[d]oxazole-5-sulfonamide]"
–,0.166,COCCOC(=O)Nc1ccc(C(=O)N[C@@H](Cc2ccccc2)C(=O)N2CCC3(C2)OC(=O)Nc2ccc(Cl)cc23)cn1 (some centres unmarked) [Example 186]
–,0.096,COC(=O)NC12CCC(C(=O)N[C@@H](Cc3ccccc3)C(=O)N3CCC[C@@]4(C3)OC(=O)Nc3ccc(Cl)c(F)c34)(CC1)CC2 [Example 243]
0.0312,–,"COC(=O)Nc1ccc(C(=O)N[C@@H](CC2CC2)C(=O)N2CC[C@@]3(C2)OC(=O)Nc2ccc(Cl)cc23)cc1 [Example 21b, methyl (4-(((S)-1-((R)-6-chloro-2-oxo-1,2-dihydrospiro[benzo[d][1,3]oxazine-4,3′-pyrrolidin]-1′-yl)-3-cyclopropyl-1-oxopropan-2-yl)carbamoyl)phenyl)carbamate]"
0.0336,–,"COC(=O)Nc1ccc(-c2c[nH]c([C@@H](Cc3ccccc3)C(=O)N3CC[C@@]4(C3)OC(=O)Nc3ccc(Cl)cc34)n2)cc1 [Example 122a, methyl (4-(2-((R)-1-((R)-6-chloro-2-oxo-1,2-dihydrospiro[benzo[d][1,3]oxazine-4,3′-pyrrolidin]-1′-yl)-1-oxo-3-phenylpropan-2-yl)-1H-imidazol-4-yl)phenyl)carbamate]"
≥ 5,–,"O=C1Nc2ccc(Cl)cc2[C@]2(CCN(C(=O)[C@H](Cc3ccccc3)C(=O)Nc3ccc(C(=O)O)cc3)C2)O1 [Example 121b, 4-((R)-2-benzyl-3-((S)-6-chloro-2-oxo-1,2-dihydrospiro[benzo[d][1,3]oxazine-4,3′-pyrrolidin]-1′-yl)-3-oxopropanamido)benzoic acid]"
–,3.32,Cc1nccnc1C(=O)N[C@@H](Cc1ccccc1)C(=O)N1CCC2(C1)OC(=O)Nc1ccc(Cl)cc12 (some centres unmarked) [Example 145]
–,0.244,COC(=O)Nc1ccc(C(=O)N[C@@H](CC2CC2)C(=O)N2CCC[C@@]3(C2)OC(=O)Nc2ccc(Cl)cc23)cn1 [Example 204]
0.0574,–,"COC(=O)Nc1ccc(C(=O)N[C@@H](CC(=O)Nc2ccccn2)C(=O)N2CC[C@@]3(C2)OC(=O)Nc2ccc(Cl)cc23)cc1 [Example 90, methyl (4-(((S)-1-((R)-6-chloro-2-oxo-1,2-dihydrospiro[benzo[d][1,3]oxazine-4,3′-pyrrolidin]-1′-yl)-1,4-dioxo-4-(pyridin-2-ylamino)butan-2-yl)carbamoyl)phenyl)carbamate]"
0.0637,–,"COC(=O)Nc1ccc(C(=O)NC(Cc2cc[nH]n2)C(=O)N2CCC3(C2)OC(=O)Nc2ccc(Cl)cc23)cc1 (racemic) [Example 28, methyl (4-((1-(6-chloro-2-oxo-1,2-dihydrospiro[benzo[d][1,3]oxazine-4,3′-pyrrolidin]-1′-yl)-1-oxo-3-(1H-pyrazol-3-yl)propan-2-yl)carbamoyl)phenyl)carbamate]"
–,2.52,"O=C1Nc2ccc(Cl)cc2C2(CCN(C(=O)[C@H](Cc3ccccc3)NC(=O)c3ccccc3-n3cccn3)C2)O1 (stereo partly drawn) [Example 154, N-((2S)-1-(6-chloro-2-oxo-1,2-dihydrospiro[benzo[d][1,3]oxazine-4,3′-pyrrolidin]-1′-yl)-1-oxo-3-phenylpropan-2-yl)-2-(1H-pyrazol-1-yl)benzamide]"
0.154,–,"COC(=O)Nc1ccc(-c2nc(C(Cc3ccccc3)C(=O)N3CCCC4(C3)OC(=O)Nc3ccc(Cl)c(F)c34)[nH]c2Cl)cc1 (single isomer, unassigned) [Example 126B, methyl (4-(5-chloro-2-(1-(6-chloro-5-fluoro-2-oxo-1,2-dihydrospiro[benzo[d][1,3]oxazine-4,3′-piperidin]-1′-yl)-1-oxo-3-phenylpropan-2-yl)-1H-imidazol-4-yl)phenyl)carbamate]"
0.0374,–,"COC(=O)Nc1ccc(C(=O)N[C@@H](Cc2ccccc2)C(=O)N2CCC[C@@]3(C2)OC(=O)Nc2ccc(C4CC4)c(F)c23)cc1 [Example 17, methyl (4-(((S)-1-((R)-6-cyclopropyl-5-fluoro-2-oxo-1,2-dihydrospiro[benzo[d][1,3]oxazine-4,3′-piperidin]-1′-yl)-1-oxo-3-phenylpropan-2-yl)carbamoyl)phenyl)carbamate]"
0.0932,–,"COC(=O)Nc1ccc(C(=O)N[C@@H](C)C(=O)N2CCC[C@@]3(C2)OC(=O)Nc2ccc(Cl)cc23)cc1 [Example 55, methyl (4-(((S)-1-((R)-6-chloro-2-oxo-1,2-dihydrospiro[benzo[d][1,3]oxazine-4,3′-piperidin]-1′-yl)-1-oxopropan-2-yl)carbamoyl)phenyl)carbamate]"
0.0564,–,"COC(=O)Nc1ccc(C(=O)N[C@H](C(=O)N2CCC[C@@]3(C2)OC(=O)Nc2ccc(Cl)c(F)c23)C2CC2)cc1 [Example 68, methyl (4-(((S)-2-((R)-6-chloro-5-fluoro-2-oxo-1,2-dihydrospiro[benzo[d][1,3]oxazine-4,3′-piperidin]-1′-yl)-1-cyclopropyl-2-oxoethyl)carbamoyl)phenyl)carbamate]"
0.0744,–,"O=C1Nc2ccc(Cl)c(F)c2[C@@]2(CCCN(C(=O)[C@H](Cc3cnccn3)NC(=O)c3ccc4[nH]c(=O)ccc4c3)C2)O1 [Example 114, N-((S)-1-((R)-6-chloro-5-fluoro-2-oxo-1,2-dihydrospiro[benzo[d][1,3]oxazine-4,3′-piperidin]-1′-yl)-1-oxo-3-(pyrazin-2-yl)propan-2-yl)-2-oxo-1,2-dihydroquinoline-6-carboxamide]"
–,0.0567,Nc1nc2cc(C(=O)N[C@@H](Cc3ccccc3)C(=O)N3CCC4(C3)OC(=O)Nc3ccc(Cl)cc34)ccc2[nH]1 (some centres unmarked) [Example 180]
0.052,–,"COC(=O)Nc1ccc(C(=O)N[C@@H](CCF)C(=O)N2CCC[C@@]3(C2)OC(=O)Nc2ccc(Cl)cc23)cc1 [Example 103, methyl (4-(((S)-1-((R)-6-chloro-2-oxo-1,2-dihydrospiro[benzo[d][1,3]oxazine-4,3′-piperidin]-1′-yl)-4-fluoro-1-oxobutan-2-yl)carbamoyl)phenyl)carbamate]"
